Series [1] in a line: Cytotoxicity against human HCT116 cells assessed as cell growth inhibition after 48 hrs by MTT assay. The class given is functional, cell-based. Conditions: HCT-116, 48 h. (In general: Tetrazolium dyes change colour on reduction, which living cells bring about.)
The nature of series [2]: Cytotoxicity against human HeLa cells assessed as cell growth inhibition after 48 hrs by MTT assay. Format: functional, cell-based.
The nature of series [3]: Cytotoxicity against human Bel7402 cells assessed as cell growth inhibition after 48 hrs by MTT assay. Format: functional, cell-based. Conditions: Bel-7402, 48 h.
A short description of series [4]: Cytotoxicity against human L02 cells assessed as cell growth inhibition after 48 hrs by MTT assay. Format: toxicity, cell-based.
The subject of series [5] is HCT-116. The series is described as follows: Selectivity index, ratio of IC50 for human L02 cells to IC50 for human HCT116 cells. The class given is functional.
In series [6] the test system is Bel-7402. The series is described as follows: Selectivity index, ratio of IC50 for human L02 cells to IC50 for human Bel7402 cells. Format: functional.
Series [7] can be described thus: Cytotoxicity against human L02 cells assessed as cell growth inhibition at 100 uM after 48 hrs by MTT assay. Format: toxicity, cell-based. The following applies: read-out: GI.
The subject of series [8] is HeLa. The experiment in a line: Selectivity index, ratio of IC50 for human L02 cells to IC50 for human HeLa cells. Format: functional.
The nature of series [9]: Cell cycle arrest in human HeLa cells assessed as accumulation at G0/G1 phase at 0.1 to 1 uM after 24 hrs by propidium iodide-based FACS analysis (reference value: 61.71%). The class given is functional. (In general: A flow cytometer gives signals particle by particle.)
A short description of series [10]: Cell cycle arrest in human HeLa cells assessed as accumulation at S phase at 0.1 to 1 uM after 24 hrs by propidium iodide-based FACS analysis (reference value: 31.26%). Format: functional.
A short description of series [11]: Cell cycle arrest in human HeLa cells assessed as accumulation at G2/M phase at 0.1 to 1 uM after 24 hrs by propidium iodide-based FACS analysis (reference value: 7.12%). Format: functional.
Series [12] is described as follows: (§1) Cytotoxicity against human Bel7402 cells assessed as cell growth inhibition at 100 uM after 48 hrs by MTT assay. The following applies: Bel-7402, 48 h, read-out: GI. Format: functional.
Series [13] can be described thus: (§2) Cytotoxicity against human HCT116 cells assessed as cell growth inhibition at 100 uM after 48 hrs by MTT assay. The following applies: HCT-116, 48 h, read-out: GI. Format: functional.
Series [14] can be described thus: Cytotoxicity against human HeLa cells assessed as cell growth inhibition at 100 uM after 48 hrs by MTT assay. Format: functional. The following applies: read-out: GI.
A short description of series [15]: Cytotoxicity against human Caco2 cells assessed as cell growth inhibition at 0.3 uM by SRB assay. The following applies: Caco-2, read-out: GI. Format: functional. Background: In SRB staining, fixed cells bind dye roughly in proportion to their protein.
Series [16] deals with HeLa. The series is described as follows: Antimigratory activity in human HeLa cells at 1 uM after 24 hrs by wound-scratch assay. Format: functional, cell-based.
The test system of series [17] is HeLa. The experiment in a line: Induction of apoptosis in human HeLa cells assessed as increase in early apoptotic cells at 0.1 uM after 24 hrs by Annexin V-FITC/propidium iodide based FACS analysis. Format: functional, cell-based.
The test system of series [18] is HCT-116. The series is described as §2. The class given is functional.
Series [19] has as its system Bel-7402. Described as §1. Format: functional.
Series [20] can be described thus: Cell cycle arrest in human HeLa cells assessed as accumulation at G0/G1 phase at 50 uM after 24 hrs by propidium iodide-based FACS analysis (reference value: 61.71%). The class given is functional.
Series [21] is described as follows: Cell cycle arrest in human HeLa cells assessed as accumulation at S phase at 50 uM after 24 hrs by propidium iodide-based FACS analysis (reference value: 31.26%). The class given is functional.
Series [22] can be described thus: Cell cycle arrest in human HeLa cells assessed as accumulation at G2/M phase at 50 uM after 24 hrs by propidium iodide-based FACS analysis (reference value: 7.12%). Format: functional.

Active and inactive are the calls of the source. The rule behind the calls is not given here.

In the case of `CCOc1ccc(/C=C(\C#N)c2cc(OC)cc(OC)c2)cc1`, the values for the IC50 in series [1], in series [2] and in [3] were 0.13 µM, 7.77 µM and 0.66 µM, respectively. The IC50 at 48 h in [4] is > 100 µM. The “Ratio IC50” value in [5] is reported as >769.23; in series [6], >151.52; in series [8], >12.87. Besides, in series [7], the inhibition at 48 h, 100 µM was determined as 34.7%. Also, the Activity in [9] was determined as 0.74%; in [10] it was 47.6%; in [11], 51.6%.

As to `COc1cc(OC)cc(/C(C#N)=C/c2ccc(Br)cc2)c1`, the IC50 was 11.4 µM in series [1], 4.2 µM in series [2] and > 100 µM in series [3]. For the same molecule, the IC50 at 48 h in series [4] is > 100 µM. For the same molecule, the “Ratio IC50” value was >8.79 in [5] and >23.81 in [8]. The inhibition of growth at 100 µM in series [12] was 31.6%. Moreover, the inhibition at 48 h, 100 µM in series [7] was found to be 36%. The Activity in series [9] amounted to 0.7%; in [10] it was 30.1%; in series [11], 69.9%.

Take `COc1cc(OC)cc(/C(C#N)=C/c2ccccc2)c1`: the half-maximal inhibitory concentration (IC50) in series [1], in [2] and in series [3] was > 100 µM throughout. Moreover, the IC50 at 48 h in series [4] is > 100 µM. For the same molecule, the inhibition of growth at 100 µM in [13] turned out to be 27.1%; in series [14], 28%; in series [12], 34.8%. Besides, the inhibition at 48 h, 100 µM in [7] amounted to 36.4%.

For the molecule `COc1cc(OC)cc(/C(C#N)=C/c2ccc(F)cc2)c1`, the IC50 in [1], in series [2] and in series [3] was > 100 µM in each case. Further, the IC50 at 48 h in series [4] was > 100 µM. The inhibition of growth at 100 µM in series [13] was found to be 27.8%; in [14], 45.8%; in [12] it was 9.3%. Further, in [7], the inhibition at 48 h, 100 µM is 2.5%.

With `COc1ccc(/C=C\c2cc(OC)cc(OC)c2)cc1` [8Z-3,4',5-TRIMETHOXYSTILBENE], the inhibition of growth at 0.3 µM in series [15] was found to be 80%.

`COc1cc(OC)cc(/C(C#N)=C/c2ccc(OCC(C)C)cc2)c1`: the IC50 in series [1], in [2] and in [3] was > 100 µM in each case. In addition, the concentration for half-maximal inhibition (IC50) at 48 h in series [4] is > 100 µM. Besides, the figures for the inhibition of growth at 100 µM in series [13], in [14] and in series [12] were 32.3%, 22.4% and 7.6%, respectively. In addition, the inhibition at 48 h, 100 µM in [7] came to 13.6%.

Regarding `CC(=O)O[C@H]1C(=O)[C@@]2(C)[C@H]([C@H](OC(=O)c3ccccc3)[C@]3(O)C[C@H](OC(=O)[C@H](O)[C@@H](NC(=O)c4ccccc4)c4ccccc4)C(C)=C1C3(C)C)[C@]1(OC(C)=O)CO[C@@H]1C[C@@H]2O` [PACLITAXEL], the IC50 in series [1] was < 0.1 µM; in [2], 13 µM; in [3], < 0.1 µM. Also, the IC50 at 48 h in [4] is > 100 µM. Besides, the entries for the “Ratio IC50” value in [5], in series [6] and in [8] were >1000, >1000 and >7.72, respectively. Further, the outcome in series [16] and in [17] was Active. Further, the Activity in series [9] stood at 1.03%; in [10], 28.5%; in series [11], 70.6%.

`Oc1ccc(/C=C/c2cc(O)cc(O)c2)cc1` [RESVERATROL]: the figures for the IC50 in [1], in series [2] and in series [3] were 62.6 µM, 120 µM and 139 µM, respectively. Besides, the “growth inhibition (GI)” value in series [18] and in series [19] was “Active” throughout. Moreover, the Activity in series [20] was determined as 72%; in series [21] it was 21.8%; in [22], 6.29%.

As to `CCCCOc1ccc(/C=C(\C#N)c2cc(OC)cc(OC)c2)cc1`, the half-maximal inhibitory concentration (IC50) in series [1], in series [2] and in series [3] was > 100 µM throughout. Further, the half-maximal inhibitory concentration (IC50) at 48 h in series [4] was > 100 µM. Also, the results for the inhibition of growth at 100 µM in [13], in [14] and in series [12] were 45%, 18.6% and 15.4%, respectively. Further, the inhibition at 48 h, 100 µM in [7] was determined as 35.7%.

By IC50 is commonly meant the point on the concentration scale where inhibition reaches its midpoint.

The values are drawn from ChEMBL document CHEMBL3872241, “Synthesis and bioactivity evaluation of 2,3-diaryl acrylonitrile derivatives as potential anticancer agents” (Bioorg Med Chem Lett, 2017).
